Experimental data reported in patent US20230172961A1 (priority 2020, published 2023).
Entries after “also recorded” stand apart in the source; their conditions may differ. Where two headings read alike, the source gives them in different places.

Tests used:
[1] = target: T1, SARS-CoV-2 RdRp (nsp12, nsp7 and nsp8) (Severe acute respiratory syndrome coronavirus 2, UniProt P0DTD1); type: biochemical
[2] = test system: RdRp of SARS-CoV and/or SARS-CoV-2; type: biochemical
[3] = target: SARS-CoV RdRp (nsp12, nsp7 and nsp8) (Severe acute respiratory syndrome coronavirus, UniProt P0C6X7); type: biochemical
[4] = target: SARS-CoV-2 exonuclease complex (nsp14/nsp10) (Severe acute respiratory syndrome coronavirus 2, UniProt P0DTD1); experiment: Inhibition of SARS-CoV-2 exonuclease, MALDI-TOF MS; type: biochemical
[5] = target: T1, SARS-CoV-2 RdRp (nsp12, nsp7 and nsp8); conditions: kinetic studies of Gordon et al 2020a, b; RDV-TP with MERS-CoV and SARS-CoV-2 RdRps; cited from earlier work
[6] = 150 µM inhibitor, 30 nM nsp14/nsp10, 37° C., 15 min
[7] = 10 µM inhibitor, 30 nM nsp14/nsp10, 37° C., 15 min
[8] = 30 µM inhibitor, 30 nM nsp14/nsp10, 37° C., 15 min
[9] = 100 µM inhibitor, 30 nM nsp14/nsp10, 37° C., 15 min
[10] = 300 µM inhibitor, 30 nM nsp14/nsp10, 37° C., 15 min

CC(Cn1cnc2c(N)ncnc21)OCP(=O)(O)OP(=O)(O)OP(=O)(O)O (stereo in doubt) [TFV-DP, Tenofovir diphosphate]
termination of the polymerase reaction [1]: obligate terminator for the RdRp

O=c1ccn([C@@H]2O[C@H](COP(=O)(O)OP(=O)(O)OP(=O)(O)O)[C@@H](O)[C@H]2F)c(=O)[nH]1 [2′-F-dUTP, 2′-fluoro-2′-deoxyuridine-5′-triphosphate]
termination of the polymerase reaction (summary of the 11 tested) [2]: did not terminate the polymerase reaction | incorporation efficiency [3]: incorporated very efficiently | relative incorporation efficiency in equimolar combinations [1]: incorporated far better than 2′-O-Me-UTP and dUTP | termination of the polymerase reaction in equimolar combinations [1]: not terminators of the polymerase reaction

N[C@@H]1[C@H](O)[C@@H](COP(=O)(O)OP(=O)(O)OP(=O)(O)O)O[C@H]1n1ccc(=O)[nH]c1=O [2′-NH2-dUTP, 2′-amino-2′-deoxyuridine-5′-triphosphate]
termination of the polymerase reaction (summary of the 11 tested) [2]: did not terminate the polymerase reaction | relative incorporation efficiency in equimolar combinations [1]: more efficiently incorporated than 2′-O-Me-UTP and dUTP | termination of the polymerase reaction in equimolar combinations [1]: not terminators of the polymerase reaction

CO[C@@H]1[C@H](O)[C@@H](COP(=O)(O)OP(=O)(O)OP(=O)(O)O)O[C@H]1n1ccc(=O)[nH]c1=O [2′-OMe-UTP, 2′-O-methyluridine-5′-triphosphate]
termination of the polymerase reaction (summary of the 11 tested) [2]: incomplete or delayed termination | termination of the polymerase reaction [3]: significant polymerase reaction termination | termination of the polymerase reaction [1]: significant termination after the first incorporation step

Cc1cn([C@H]2C[C@H](F)[C@@H](COP(=O)(O)OP(=O)(O)OP(=O)(O)O)O2)c(=O)[nH]c1=O [3′-F-dTTP, 3′-fluoro-3′-deoxythymidine triphosphate]
termination of the polymerase reaction [3]: permanent terminators | incorporation efficiency [1]: efficient substrates of the RdRp | termination of the polymerase reaction [1]: no further incorporation

Cc1cn([C@H]2C[C@H](N=[N+]=[N-])[C@@H](COP(=O)(O)OP(=O)(O)OP(=O)(O)O)O2)c(=O)[nH]c1=O [3′-N3-dTTP, 3′-N3-3′-deoxythymidine triphosphate]
termination of the polymerase reaction [3]: permanent terminators | incorporation efficiency [1]: incorporation efficiency was lower than for 2′-F,Me-UTP and 3′-F-dTTP | termination of the polymerase reaction [1]: no evidence of further incorporation

CO[C@H]1[C@@H](O)[C@H](n2ccc(=O)[nH]c2=O)O[C@@H]1COP(=O)(O)OP(=O)(O)OP(=O)(O)O [3′-OMe-UTP, 3′-0-methyluridine-5′-triphosphate]
termination of the polymerase reaction (summary of the 11 tested) [2]: complete termination of the polymerase reaction | incorporation efficiency [3]: lower incorporation efficiency | termination of the polymerase reaction [3]: obligate terminator

Nc1nc(=O)n([C@@H]2CS[C@H](COP(=O)(O)OP(=O)(O)OP(=O)(O)O)O2)cc1F [Ec-TP, Emtricitabine triphosphate]
incorporation efficiency [1]: relatively poor incorporation

COc1cc2c(cc1Cc1cccc(Cl)c1F)c(=O)c(C(=O)O)cn2[C@H](CO)C(C)C [Elvitegravir]
inhibition of exonuclease activity ([4]; concentration not stated for this compound (FIG. 59d)): able to inhibit the exonuclease

Nc1nc(O)c2ncn(COC(CO)COP(=O)(O)OP(=O)(O)OP(=O)(O)O)c2n1 (centres unmarked) [Gan-TP, Ganciclovir 5′-triphosphate]
termination of the polymerase reaction (summary of the 11 tested) [2]: complete termination of the polymerase reaction | termination of the polymerase reaction [3]: terminate the polymerase reaction | termination of the polymerase reaction [1]: complete termination; also recorded: better terminators than Ent-TP

Nc1ccn([C@@H]2CS[C@H](COP(=O)(O)OP(=O)(O)OP(=O)(O)O)O2)c(=O)n1 [Lam-TP, Lamivudine triphosphate]
incorporation efficiency [1]: relatively poor incorporation

COC(=O)N[C@H](C(=O)N1CC2(CC2)C[C@H]1c1nc(-c2ccc3c(c2)C(F)(F)c2cc(-c4ccc5[nH]c([C@@H]6[C@H]7CC[C@H](C7)N6C(=O)[C@@H](NC(=O)OC)C(C)C)nc5c4)ccc2-3)c[nH]1)C(C)C [Ledipasvir]
inhibition of exonuclease activity [4, 6]: able to inhibit the exonuclease

Cc1cccc(C)c1OCC(=O)N[C@@H](Cc1ccccc1)[C@@H](O)C[C@H](Cc1ccccc1)NC(=O)[C@H](C(C)C)N1CCCNC1=O [Lopinavir]
inhibition of exonuclease activity [4, 7]: small inhibition of the exonuclease activity | inhibition of exonuclease activity [4, 8]: fragmentation peaks are further reduced | inhibition of exonuclease activity [4, 9]: fragmentation peaks are further reduced | inhibition of exonuclease activity [4, 10]: complete inhibition of exonuclease activity

COC(=O)N[C@H](C(=O)N1CCC[C@H]1C(=O)Nc1ccc([C@@H]2CC[C@@H](c3ccc(NC(=O)[C@@H]4CCCN4C(=O)[C@@H](NC(=O)OC)C(C)C)cc3)N2c2ccc(C(C)(C)C)cc2)cc1)C(C)C [Ombitasvir]
inhibition of exonuclease activity ([4]; 1 µM inhibitor, 30 nM nsp14/nsp10, 37° C., 15 min): shows inhibition of the exonuclease activity | inhibition of exonuclease activity [4, 7]: significantly increased inhibition of exonuclease activity | inhibition of exonuclease activity [4, 6]: able to inhibit the exonuclease

COC(=O)N[C@H](C(=O)N1CCC[C@H]1c1nc2cc([C@H]3CC[C@H](c4cc5nc([C@@H]6CCCN6C(=O)[C@@H](NC(=O)OC)[C@@H](C)OC)[nH]c5cc4F)N3c3cc(F)c(N4CCC(c5ccc(F)cc5)CC4)c(F)c3)c(F)cc2[nH]1)[C@@H](C)OC [Pibrentasvir]
inhibition of exonuclease activity ([4]; 0.1 µM inhibitor, 30 nM nsp14/nsp10, 37° C., 15 min): shows inhibition of the exonuclease activity | inhibition of exonuclease activity [4, 7]: significantly increased inhibition of exonuclease activity | inhibition of exonuclease activity [4, 6]: able to inhibit the exonuclease

N#C[C@@]1(c2ccc3c(N)ncnn23)O[C@H](COP(=O)(O)OP(=O)(O)OP(=O)(O)O)[C@@H](O)[C@H]1O [RDV-TP]
incorporation efficiency relative to the natural nucleotide [5]: higher incorporation efficiency than ATP

CC(C)c1nc(CN(C)C(=O)N[C@H](C(=O)N[C@@H](Cc2ccccc2)C[C@H](O)[C@H](Cc2ccccc2)NC(=O)OCc2cncs2)C(C)C)cs1 [Ritonavir]
inhibition of exonuclease activity [4, 7]: shows inhibition of the exonuclease activity | inhibition of exonuclease activity [4, 8]: fragmentation peaks are further reduced | inhibition of exonuclease activity [4, 9]: fragmentation peaks are further reduced | inhibition of exonuclease activity [4, 10]: complete inhibition of exonuclease activity

Cc1cn([C@H]2C=C[C@@H](COP(=O)(O)OP(=O)(O)OP(=O)(O)O)O2)c(=O)[nH]c1=O [Sta-TP, Stavudine 5′-triphosphate]
termination of the polymerase reaction (summary of the 11 tested) [2]: complete termination of the polymerase reaction | incorporation efficiency [1]: very efficiently incorporated | termination of the polymerase reaction [1]: complete termination of the polymerase reaction | termination of the polymerase reaction at 10-fold lower concentration [1]: resulted in termination of the polymerase reaction

O=c1ccn([C@@H]2O[C@H](COP(=O)(O)OP(=O)(O)OP(=O)(O)O)[C@@H](O)[C@H]2O)c(=O)[nH]1 [UTP]
termination of the polymerase reaction [3]: primer extension by 2 UTPs occurred

O=c1ccn([C@H]2C[C@H](O)[C@@H](COP(=O)(O)OP(=O)(O)OP(=O)(O)O)O2)c(=O)[nH]1 [dUTP]
relative incorporation efficiency in equimolar combinations ([1]; 250 µM each nucleotide, equimolar combinations (FIG. 36)): lower incorporation efficiency than the natural UTP

Cidofovir diphosphate [Cid-DP]
termination of the polymerase reaction (summary of the 11 tested) [2]: incomplete or delayed termination | termination of the polymerase reaction [3]: terminate the polymerase reaction | termination of the polymerase reaction [1]: delayed termination | termination of the polymerase reaction at 10-fold lower concentration [1]: resulted in termination of the polymerase reaction

Sofosbuvir
extension of the RNA template-loop-primer ([1]; […], RDV-TP together with UTP): complete conversion

biotin-16-aminoallyl-2′-deoxyuridine-5′-triphosphate [Biotin-dUTP]
termination of the polymerase reaction (summary of the 11 tested) [2]: complete termination of the polymerase reaction | relative incorporation efficiency in equimolar combinations [1]: lower incorporation efficiency than the natural UTP | termination of the polymerase reaction [1]: terminator of the polymerase reaction

desthiobiotin-16-aminoallyl-uridine-5′-triphosphate [Desthio-UTP]
termination of the polymerase reaction (summary of the 11 tested) [2]: did not terminate the polymerase reaction | incorporation efficiency [1]: incorporated | termination of the polymerase reaction [1]: does not terminate the polymerase reaction
